Measured values reported in US6500800B1, “Composition and method for causing photodynamic damage to target cells” (priority 1996, dated 2002).
Read-outs that look alike come from different tables or passages of the source.

Tested on: Human hepatoma PLC/PRF/5 cells
Assay: Photodynamic damage (PDD), survival rate of cells versus concentration after irradiation
Assay type: cell-based
Text: A stands for (P10)-insulin-(chlorin e6); B stands for (β-galactosidase)-insulin-(chlorin e6); C stands for chlorin e6; […] Survival rate of human hepatoma PLC/PRF/5 cells plotted against concentration of compositions and chlorin e6 is depicted in FIGS. 2 and 3.

C=Cc1c(C)c2cc3nc(c(CC(=O)O)c4[nH]c(cc5nc(cc1[nH]2)C(C)=C5CC)c(C)c4C(=O)O)[C@@H](CCC(=O)O)[C@@H]3C [chlorin e6] gave an EC50 (irradiation dose of 12.3 kJ/m^2, read-out: EC50 value (concentration of a semi-maximal effect)) of 11.5 µM and an EC50 (irradiation dose of 96 kJ/m^2, read-out: EC50 value) of 0.35 µM.
